Patent US20080194701A1, “Bifunctional Enzyme with Y-Glutamylcysteine Synthetase and Glutathione Synthetase Activity and Uses Thereof” (priority 2004, published 2008)

Experiments:
S. agalactiae γ-GCS-GS = target: T1, S. agalactiae γ-GCS-GS (Streptococcus agalactiae serotype V, UniProt Q8DXM9); test: GS activity assay based on ADP formation, S. agalactiae γ-GCS-GS; details: GS activity
T1 sequence (Q8DXM9 1-750): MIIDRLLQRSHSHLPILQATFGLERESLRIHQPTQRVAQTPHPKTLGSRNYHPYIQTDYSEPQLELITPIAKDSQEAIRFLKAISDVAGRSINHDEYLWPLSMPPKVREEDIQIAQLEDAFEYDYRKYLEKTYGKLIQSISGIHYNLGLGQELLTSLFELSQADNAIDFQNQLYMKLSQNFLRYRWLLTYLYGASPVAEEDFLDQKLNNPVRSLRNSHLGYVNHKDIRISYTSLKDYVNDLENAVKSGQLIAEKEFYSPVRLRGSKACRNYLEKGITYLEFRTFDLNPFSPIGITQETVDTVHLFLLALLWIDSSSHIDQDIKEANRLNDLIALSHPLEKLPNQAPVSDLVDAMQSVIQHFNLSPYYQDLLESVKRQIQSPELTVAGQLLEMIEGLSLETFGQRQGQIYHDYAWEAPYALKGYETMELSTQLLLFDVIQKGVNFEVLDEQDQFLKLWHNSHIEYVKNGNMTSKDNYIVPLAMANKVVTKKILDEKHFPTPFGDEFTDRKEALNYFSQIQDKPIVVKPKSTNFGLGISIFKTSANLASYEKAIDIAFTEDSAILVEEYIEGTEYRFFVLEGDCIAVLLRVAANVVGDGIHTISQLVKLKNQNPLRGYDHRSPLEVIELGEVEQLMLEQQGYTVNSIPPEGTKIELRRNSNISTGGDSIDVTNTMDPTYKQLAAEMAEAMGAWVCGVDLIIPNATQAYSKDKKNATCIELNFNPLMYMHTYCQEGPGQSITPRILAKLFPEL
Method: Transformed cells were grown, induced, and harvested by centrifugation, and were then broken using a French pressure cell. […] The column was equilibrated with 50 mM Tris HCl buffer, pH 7.4, containing 5 mM L-glutamate, 5 mM MgCl2, and 5 mM β-mercaptoethanol, and the high-speed supernatant was loaded. After washing the column with equilibration buffer to remove proteins lacking a His-tag, the expressed His8-tagged protein was eluted using the same buffer supplemented with 200 mM imidazole. Amount of γ-GCS activity was determined as described in Example 2. […] It was observed that the purified enzyme catalyzed both the γ-GCS and the GS reactions. Since the GS-specific activity was higher than the specific activity for any known GS enzyme, it was apparent that the expressed 85 kDa S. agalactiae protein (rather than a trace impurity), accounted for the observed GS activity. Using the pREP4 auxiliary plasmid instead of the pRARE plasmid gave somewhat lower yields (325 mg total protein vs. 442 mg protein using pRARE) but the specific activities of the γ-GCS activity (870 units/mg) and GS activities (1143 units/mg) were similar.
Results for E. coli GS are from H. Gushima et al. J. Appl. Biochem. 5, 210-218 (1983). Results for rat GS are from J. L. Luo et al. Biochem. Biophys. Res. Commun. 275, 577-581 (2000). Results for human GS are from R. Njalsson et al. Biochem. Biophys. Res. Commun. 289, 80-84 (2001) and R. Njalsson et al. Biochem. J. 349, 275-279 (2000).

Rat GS = target: T2, Rat GS (Rattus norvegicus, UniProt P46413); details: cited from earlier work
T2 sequence (P46413 1-474): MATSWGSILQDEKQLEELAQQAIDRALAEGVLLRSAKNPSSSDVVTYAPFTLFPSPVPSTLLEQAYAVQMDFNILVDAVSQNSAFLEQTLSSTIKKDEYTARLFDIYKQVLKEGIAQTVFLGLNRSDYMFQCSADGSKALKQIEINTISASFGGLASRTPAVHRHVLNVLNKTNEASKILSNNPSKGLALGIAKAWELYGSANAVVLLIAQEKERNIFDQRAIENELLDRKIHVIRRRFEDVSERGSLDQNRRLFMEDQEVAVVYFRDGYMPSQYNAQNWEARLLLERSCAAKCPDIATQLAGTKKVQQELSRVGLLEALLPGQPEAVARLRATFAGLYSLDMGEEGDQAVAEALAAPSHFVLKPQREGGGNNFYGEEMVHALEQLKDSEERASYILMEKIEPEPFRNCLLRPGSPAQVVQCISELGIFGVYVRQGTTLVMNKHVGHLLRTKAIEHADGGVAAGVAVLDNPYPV

E. faecalis γ-GCS-GS = E. faecalis γ-GCS-GS (Enterococcus faecalis, UniProt Q82ZG8); test: GS activity of E. faecalis γ-GCS-GS; details: substrate Km, GS activity
E. faecalis γ-GCS-GS, sequence (Q82ZG8 whole entry): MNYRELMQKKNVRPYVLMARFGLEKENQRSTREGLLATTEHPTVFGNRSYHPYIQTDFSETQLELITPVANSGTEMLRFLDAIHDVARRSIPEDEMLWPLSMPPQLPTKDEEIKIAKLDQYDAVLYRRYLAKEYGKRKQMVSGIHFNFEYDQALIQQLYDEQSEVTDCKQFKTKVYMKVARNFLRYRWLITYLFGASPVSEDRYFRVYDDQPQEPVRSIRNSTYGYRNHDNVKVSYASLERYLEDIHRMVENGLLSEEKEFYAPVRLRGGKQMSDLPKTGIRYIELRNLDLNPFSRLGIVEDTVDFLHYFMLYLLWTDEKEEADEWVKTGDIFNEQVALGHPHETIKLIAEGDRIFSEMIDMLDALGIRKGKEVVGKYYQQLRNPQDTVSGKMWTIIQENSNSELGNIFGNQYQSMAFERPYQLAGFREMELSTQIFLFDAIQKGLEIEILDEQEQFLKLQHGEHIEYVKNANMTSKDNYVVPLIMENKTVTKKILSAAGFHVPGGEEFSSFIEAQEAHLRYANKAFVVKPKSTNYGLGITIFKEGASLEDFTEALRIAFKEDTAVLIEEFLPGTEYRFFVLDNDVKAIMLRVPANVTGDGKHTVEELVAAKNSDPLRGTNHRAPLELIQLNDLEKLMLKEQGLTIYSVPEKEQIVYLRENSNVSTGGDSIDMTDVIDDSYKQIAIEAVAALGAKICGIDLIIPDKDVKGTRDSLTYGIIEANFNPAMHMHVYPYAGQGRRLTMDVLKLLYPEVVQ

Compound: Nc1ncnc2c1ncn2[C@@H]1O[C@H](COP(=O)(O)OP(=O)(O)OP(=O)(O)O)[C@@H](O)[C@H]1O [ATP]
- Vmax (S. agalactiae γ-GCS-GS; unit = 1 μmol product per hour): 1662 ± 77 units/mg
- Km (S. agalactiae γ-GCS-GS; substrate Km): 420 ± 49 µM
- Vmax (Rat GS): 678 units/mg
- Km (Rat GS; substrate Km): 37 µM
- Km (E. faecalis γ-GCS-GS): 179 ± 5 µM
